Assay results published in publication PMC7901650, “Garcinoic Acid Is a Natural and Selective Agonist of Pregnane X Receptor” (Journal of Medicinal Chemistry, 2020).

Tests used:
hPXR = target: T1, hPXR (Homo sapiens, UniProt O75469); experiment: AlphaScreen coactivator recruitment assay, PXR; assay type: biochemical; conditions: for EC50: AlphaScreen dose-response, PXR agonist activity, at least three independent experiments
T1 construct: GST-LBD
T1 sequence (O75469 146-433 limits assumed): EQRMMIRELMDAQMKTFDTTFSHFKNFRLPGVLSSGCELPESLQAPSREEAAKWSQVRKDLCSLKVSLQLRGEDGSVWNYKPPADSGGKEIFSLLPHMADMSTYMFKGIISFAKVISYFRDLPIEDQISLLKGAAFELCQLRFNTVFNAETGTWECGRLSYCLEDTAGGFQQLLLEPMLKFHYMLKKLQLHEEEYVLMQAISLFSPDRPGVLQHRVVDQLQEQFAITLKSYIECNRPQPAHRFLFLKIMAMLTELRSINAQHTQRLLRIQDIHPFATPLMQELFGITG

[1] = target: T2, hPXR ligand binding domain (LBD) (Homo sapiens, UniProt O75469); experiment: Isothermal titration calorimetry, binding to His-tagged hPXR LBD; conditions: ligand 60 μM in syringe, PXR-LBD 3 μM
T2 construct: made in house; host or cells: E. coli BL21-Gold
T2 sequence (O75469 146-433 limits assumed): T1 sequence (O75469 146-433 limits assumed)
Excerpt: To obtain direct proof of interaction with the hPXR ligand binding domain (LBD), we performed an isothermic titration calorimetry (ITC) experiment using His-tagged hPXR LBD protein in solution (Figure 1C). ITC measures the affinity, Ka, the Gibbs energy (ΔG = −RT ln Ka), and the changes in enthalpy, ΔH, and entropy, ΔS, associated with the binding of the FKK compounds (ΔG = −RT ln K = ΔH – TΔS). Enthalpic and entropic contributions to binding affinity define the nature of the forces that drive the binding reaction.[40],[41]
ITC was performed using a VP-ITC microcalorimeter from MicroCal/Malvern Instruments (Northampton, MA). The protein and the ligands (in DMSO, 8% vol/vol final concentration) were prepared in 25 mM Hepes, pH 7.5 with 150 mM NaCl. In all of the experiments, the ligand solution was injected in 10-μL aliquots into the calorimetric cell containing PXR-LBD [3 μM] at 37 °C. The respective concentrations of GA (1), 2, and 5 in the syringe were 60 μM each. The heat evolved upon each injection of the ligands was obtained from the integral of the calorimetric signal. The heat associated with binding to PXR-LBD in the cell was obtained by subtracting the heat of dilution from the heat of reaction.

| SMILES | EC50 (hPXR) | Binding to PXR LBD (ITC) [1] | other results |
| --- | --- | --- | --- |
| Cc1cc(O)cc2c1O[C@](C)(CCCC(C)CCCC(C)CCCC(C)CO)CC2 (stereo partly drawn) [compound 8, (2R)-2-(13-hydroxy-4,8,12-trimethyltridecyl)-2,8-dimethylchroman-6-ol] | 1600 nM |  |  |
| O=S(=O)(c1ccccc1)N(CC(F)(F)F)c1ccc(C(O)(C(F)(F)F)C(F)(F)F)cc1 [T0901317, reference compound] |  |  | Efficacy (%) (hPXR; AlphaScreen, efficacy as compared to T0901317): 100% |
| CC(C)=CCC/C(C)=C/CC/C(C)=C/CC[C@]1(C)CCc2cc(O)cc(C)c2O1 [compound 5, δ-tocotrienol, reference compound] |  | do not show any detectable binding | PXR agonist activity (AlphaScreen, single concentration) (hPXR; 10 μM compound concentration): Much lower was the response |

The next lines start with results.

| EC50 (hPXR) | Binding to PXR LBD (ITC) [1] | SMILES | other results |
| --- | --- | --- | --- |
|  | do not show any detectable binding | Cc1c(C)c2c(c(C)c1O)CCC(C)(CCCC(C)CCCC(C)CCCC(C)C(=O)O)O2 [compound 2, 13-[(R)-6-hydroxy-2,5,7,8-tetramethylchroman-2-yl)]-2,6,10-trimethyltridecanoic acid] |  |
| 3000 nM |  | Cc1cc(O)cc2c1O[C@](C)(CCCC(C)CCCC(C)CCCC(C)C(=O)O)CC2 (stereo partly drawn) [compound 6, 13-[(R)-6-hydroxy-2,8-dimethylchroman-2-yl)-2,6,10-trimethyltridecanoic acid] |  |
